The experiment has as its system bacillus used as an index (biological-indicator). The conditions noted are these: 15 g of 35% hydrogen peroxide solution vaporized in 3 minutes, about 0.8 m^3 isolator, peak about 1300 ppm, closed state until 1200 seconds. Here is the method:
In this Example, the above-mentioned injector 14 is controlled so that hydrogen peroxide solution is continuously dropped for 3 minutes at a flow rate of 5 g/min, and the dropped hydrogen peroxide solution changes to hydrogen peroxide vapor by flash evaporation in an evaporator 12 in an instant.

Results on one compound are retold here after patent publication US20060008378A1, “Sterilization method” (priority 2004, published 2006).

Consider `OO` [hydrogen peroxide vapor, hydrogen peroxide], for which the “effect of sterilization (culturing the biological-indicator after sterilization)” value is reported as “multiplication of the bacillus used as an index is not recognized”.
